# Where two headings read alike, the source gives them in different places.
# Tests used:
# [1] = biological target: GAL4 DBD-CfEcR(DEF)/VP16AD-MmRXRE (Choristoneura fumiferana, UniProt O77240); experiment: 13B3 Assay (CHO stable cell line, luciferase reporter); settings: for Fold Induction, 13B3 Assay, 3.3 uM: 3.3 uM ligand; for Fold Induction, 13B3 Assay, 3.3 uM / Fold Induction, 13B3 Assay, 33 uM: RLU ligand treated / RLU DMSO treated cells; for Fold Induction, 13B3 Assay, 33 uM: 33 uM ligand; for 13B3 assay Rel Max FI: maximum fold induction at any concentration relative to that of GS-E ligand, CHO 13B3 cells; for fold induction at 3.3 µM: read-out: Fold Induction, 13B3 Assay, 3.3 uM; for fold induction at 33 µM: read-out: Fold Induction, 13B3 Assay, 33 uM
# Source text: GAL4 DBD-CfEcR(DEF)/VP16AD-MmRXRE:
# The wild-type D, E, and F domains from spruce budworm Choristoneura fumiferana EcR (“CfEcR-DEF”; SEQ ID NO: 1) were fused to a GALA DNA binding domain (“Gal4DBD1-147”; SEQ ID NO: 2) and placed under the control of the SV40e promoter of pM vector (PT3119-5, Clontech, Palo Alto, Calif.). The D and E domains from Mus Musculus RXR (“MmRXR-DE”; SEQ ID NO: 11) were fused to the transactivation domain from VP16 (“VP16AD”; SEQ ID NO: 6) and placed under the control of the SV40e promoter of the pVP16 vector (PT3127-5, Clontech, Palo Alto, Calif.).
# CHO cells were transiently transfected with transcription cassettes for GAL4 DBD-CJEcR(DEF) and for VP16AD-MmRXRE controlled by SV40e promoters. Stably transfected cells were selected using Hygromycin. Individually isolated CHO cell clones were transiently transfected with a GALA RE-luciferase reporter (pFR-Luc, Stratagene, La Jolla, Calif.). The 13B3 clone was selected using Zeocin.
# Cells were trypsinized and diluted to a concentration of 2.5×10^4 cells mL. 100 μL of cell suspension was placed in each well of a 96 well plate and incubated at 37° C. under 5% CO2 for 24 h. Ligand stock solutions were prepared in DMSO and diluted 300 fold for all treatments. Dose response testing consisted of 8 concentrations ranging from 33 μM to 0.01 μM.
# Luciferase reporter gene expression was measured 48 h after cell treatment using Bright-Glo™ Luciferase Assay System from Promega (E2650). Luminescence was detected at room temperature using a Dynex MLX microtiter plate luminometer.
# (§1) Each assay was conducted in two separate wells, and the two values were averaged. Fold inductions were calculated by dividing relative light units (“RLU”) in ligand treated cells with RLU in DMSO treated cells. EC50s were calculated from dose response data using a three-parameter logistic model.
# [2] = biological target: T1, Bombyx mori EcR (VP16 fusion, CVBE switch construct) (Bombyx mori, UniProt P49881); experiment: Z3 Assay (HEK-293 cells with CVBE and 6XEcRE LacZ, β-galactosidase reporter); settings: for Fold Induction, Z3 Assay, 3.3 uM: 3.3 uM ligand; for Fold Induction, Z3 Assay, 3.3 uM / Fold Induction, Z3 Assay, 33 uM: ligand treated / DMSO treated cells; for Z3 assay Rel Max FI: maximum fold induction at any concentration relative to that of GS-E ligand; for Fold Induction, Z3 Assay, 33 uM: 33 uM ligand; for fold induction at 3.3 µM: HEK293, read-out: Fold Induction, Z3 Assay, 3.3 uM; for fold induction at 33 µM: HEK293, read-out: Fold Induction, Z3 Assay, 33 uM
# T1 sequence (P49881 86-606): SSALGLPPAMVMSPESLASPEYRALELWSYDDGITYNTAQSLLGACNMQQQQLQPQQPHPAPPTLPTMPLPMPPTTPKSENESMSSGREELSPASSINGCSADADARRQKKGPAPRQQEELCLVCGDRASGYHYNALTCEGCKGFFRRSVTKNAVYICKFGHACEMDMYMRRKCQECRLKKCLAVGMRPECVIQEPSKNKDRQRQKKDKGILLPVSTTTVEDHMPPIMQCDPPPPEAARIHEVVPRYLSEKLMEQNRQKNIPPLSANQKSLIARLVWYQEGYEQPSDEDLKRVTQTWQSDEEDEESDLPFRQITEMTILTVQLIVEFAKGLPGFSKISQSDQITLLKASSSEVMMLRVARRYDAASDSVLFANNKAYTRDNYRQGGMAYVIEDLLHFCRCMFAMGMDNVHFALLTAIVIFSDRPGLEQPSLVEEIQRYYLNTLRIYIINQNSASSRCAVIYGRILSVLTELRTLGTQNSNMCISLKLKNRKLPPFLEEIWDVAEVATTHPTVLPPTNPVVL
# T1 sequence (P19793 1-462 partner): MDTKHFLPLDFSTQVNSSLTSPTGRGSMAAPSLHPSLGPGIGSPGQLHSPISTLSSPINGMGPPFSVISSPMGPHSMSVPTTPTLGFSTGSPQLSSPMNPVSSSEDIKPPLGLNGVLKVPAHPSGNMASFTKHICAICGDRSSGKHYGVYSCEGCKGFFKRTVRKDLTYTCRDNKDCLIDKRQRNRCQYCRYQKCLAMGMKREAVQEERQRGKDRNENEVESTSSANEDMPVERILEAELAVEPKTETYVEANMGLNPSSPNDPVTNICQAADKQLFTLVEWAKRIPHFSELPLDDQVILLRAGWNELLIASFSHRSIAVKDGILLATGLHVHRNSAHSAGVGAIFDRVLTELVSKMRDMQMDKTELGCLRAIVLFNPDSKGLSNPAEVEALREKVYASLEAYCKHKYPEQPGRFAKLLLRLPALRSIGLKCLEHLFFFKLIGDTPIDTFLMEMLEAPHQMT
# Source text: Dr. F. Gage provided a population of stably transformed cells containing CVBE and 6XEcRE as described in Suhr, S. T., Gil, E. B., Senut M. C., Gage, F. H. (1998) Proc. Natl. Acad. Sci. USA 95, 7999-804. Human 293 kidney cells, also referred to as HEK-293 cells, were sequentially infected with retroviral vectors encoding first the switch construct CVBE, and subsequently the reporter construct 6XEcRE Lac Z. The switch construct contained the coding sequence for amino acids 26-546 from Bombyx mori EcR (BE) (Iatrou) inserted in frame and downstream of the VP16 transactivation domain (VBE). A synthetic ATG start codon was placed under the control of cytomegalovirus (CVBE) immediate early promoter and flanked by long terminal repeats (LTR). The reporter construct contained six copies of the ecdysone response element (EcRE) binding site placed upstream of LacZ and flanked on both sides with LTR sequences (6XEcRE).
# Dilution cloning was used to isolate individual clones. Clones were selected using 450 ug/mL G418 and 100 ng/mL puromycin. Individual clones were evaluated based on their response in the presence and absence of test ligands.
# Human 293 kidney cells stably transformed with CVBE and 6XEcRE LacZ were maintained in Minimum Essential Medium (Mediates, 10-010-CV) containing 10% FBS (Life Technologies, 26140-087), […] G418 (Mediates, 30-234-CR), and […] (Sigma, P-7255), at 37° C. in an atmosphere containing 5% CO2 and were subculture when they reached 75% confluence.
# Z3 cells were seeded into 96-well tissue culture plates at a concentration of 2.5×10^3 cells per well and incubated at 37° C. in 5% CO2 for twenty-four hours. Stock solutions of ligands were prepared in DMSO. Ligand stock solutions were diluted 100 fold in media and 50 μL of this diluted ligand solution ([…]) was added to cells. The final concentration of DMSO was maintained at 0.03% in both controls and treatments.
# Reporter gene expression was evaluated 48 hours after treatment of cells, β-galactosidase activity was measured using Gal Screen™ bioluminescent reporter gene assay system from Tropix (GSY1000). Fold induction activities were calculated by dividing relative light units (“RLU”) in ligand treated cells with RLU in DMSO treated cells. Luminescence was detected at room temperature using a Dynex MLX microtiter plate luminometer.
# Flanking both constructs are long terminal repeats, G418 and puromycin are selectable markers, CMV is the cytomegalovirus promoter, VBE is coding sequence for amino acids 26-546 from Bombyx mori EcR inserted downstream of the VP16 transactivation domain, 6×EcRE is six copies of the ecdysone response element, lacZ encodes for the reporter enzyme β-galactosidase.
# as §1
# [3] = read-out: 13B3 EC50, CHO 13B3 stable cell line, luciferase reporter, 48 h, average of two wells
# [4] = read-out: Z3 assay EC50, HEK-293 Z3 cells, β-galactosidase reporter, average of two wells
SMILES,"Fold Induction, 13B3 Assay, 3.3 uM ([1]; average of two wells)","Fold Induction, 13B3 Assay, 33 uM ([1]; average of two wells)",13B3 assay Rel Max FI [1],"EC50 [1, 3] [nM]","Fold Induction, Z3 Assay, 3.3 uM ([2]; average of two wells)",Z3 assay Rel Max FI ([2]; HEK-293 Z3 cells),"EC50 [2, 4] [nM]","Fold Induction, Z3 Assay, 33 uM ([2]; average of two wells)",EC50 [1] [nM],fold induction at 3.3 µM [1],fold induction at 33 µM [1],EC50 [2] [nM],fold induction at 3.3 µM [2],fold induction at 33 µM [2]
CCc1ccc(C(=O)NN(C(=O)c2cc(OC)c(C)c(OC)c2)C(C)(C)C)c(F)c1 [RG-115077],932,199,1.509,847,294,0.911,389,,,,,,,
Cc1cc(C)cc(C(=O)N(NC(=O)c2cccc([N+](=O)[O-])c2C)C(C)(C)C)c1 [RG-100915],133,525,0.552,4450,532,0.912,1000,1292,,,,,,
COc1cc(OC)cc(C(=O)N(NC(=O)c2cccc(C)c2C)C(C)(C)C)c1 [RG-100764],,3814,,,915,0.900,2340,369,,,,,,
CCc1c(OC)cccc1C(=O)NN(C(=O)c1cc(C)cc(C)c1)C(C)(C)COC(C)=O [RG-115310],2,3044,0.676,> 50000,199,0.781,2630,960,,,,,,
Cc1cc(C)cc(C(=O)N(NC(=O)c2cccc(OC(C)C)c2C)C(C)(C)C)c1 [RG-101670],2297,738,0.874,646,1190,0.853,468,929,,,,,,
CCc1c(OC)cccc1C(=O)NN(C(=O)c1cc(C)nc(Cl)c1)C(C)(C)C [RG-100667],,1191,,,1480,0.890,347,238,,,,,,
CCc1ccc(C(=O)NN(C(=O)c2cccc(C)c2)C(C)(C)C)c(F)c1 [RG-115674],442,,0.875,1720,319,0.995,229,,,,,,,
CCc1c(OC)cccc1C(=O)NN(C(=O)c1cc(F)cc(C(F)(F)F)c1)C(C)(C)C [RG-115088],542,1048,0.709,1830,561,0.958,501,228,,,,,,
"CCc1c(OC)cccc1C(=O)NN(C(=O)c1cc(C)cc(/C=N/NC(N)=O)c1)C(C)(C)C [RG-115429, semicarbazide of N-(3-formyl-5-methyl-benzoyl)-N-tert-butyl-N′-(2-ethyl-3-methoxy-benzoyl) hydrazide]",,,1.065,,,0.880,,,8680,18,1840,9570,3,1720
CC(C)(C)N(NC(=O)c1c(F)ccc(F)c1F)C(=O)c1ccc(F)cc1Cl [RG-100620],,13982,,,710,0.869,2400,428,,,,,,
"CCc1c(OC)cccc1C(=O)NN(C(=O)c1cc(C)cc(C)c1)C(C)(C)COC [RG-115006, 2-ethyl-3-methoxy-benzoic acid N′-(3,5-dimethyl-benzoyl)-N′-(2-methoxy-1,1-dimethyl-ethyl)-hydrazide]",,,0.890,,,1.031,,,3500,4180,3150,275,415,1070
CCc1ccc(C(=O)NN(C(=O)c2cc(C)cc(C)c2)C(C)(C)C)cc1CC [RG-101889],,378,,,1085,,3300,245,,,,,,
CCC(N(NC(=O)c1cccc(C)c1C)C(=O)c1cccc(C)c1)C(C)(C)C (centres unmarked) [RG-104074],544,5378,0.812,865,189,1.122,307,200,,,,,,
CCc1ccc(C(=O)NN(C(=O)c2cc(F)c(F)c(F)c2)C(C)(C)C)c(F)c1 [RG-115259],3513,2981,0.702,2700,91,0.617,427,,,,,,,
